Columns and labels:
Assay type in all cases: cell-based
U2OS [1] = test: Modulation of ATF6 activity in human U2OS cells at 1 uM in presence of ER stress inducer thapsigargin (Tg) measured by TRE-luciferase reporter assay relative to control
U2OS [2] = test: Modulation of ATF6 activity in human U2OS cells at 10 uM in presence of ER stress inducer thapsigargin (Tg) measured by TRE-luciferase reporter assay relative to control
U2OS [3] = test: Modulation of ATF6 activity in human U2OS cells at 1 uM measured by TRE-luciferase reporter assay relative to control
U2OS [4] = test: Modulation of ATF6 activity in human U2OS cells at 10 uM measured by TRE-luciferase reporter assay relative to control

Structure (SMILES)	Activity (U2OS [1]; filed as activator)	Activity (U2OS [2]; filed as activator)	Activity (U2OS [3])	Activity (U2OS [4])	Activity (U2OS [1])	Activity (U2OS [2])
CC(c1c(Cl)cccc1Cl)n1cc(NC(=O)c2cc(-c3ccco3)on2)cn1 (stereo unspecified)	> 150%	> 150%	0%	0%		
CC(c1c(Cl)cccc1Cl)n1cc(NC(=O)c2cc(-c3cccs3)on2)cn1 (stereo unspecified)		100%	0%	0%	75%	
CC(c1ccc(F)cc1Cl)n1cc(NC(=O)c2cc(-c3ccco3)on2)cn1 (stereo unspecified)	100%					75%
Cc1c(NC(=O)c2cc(-c3ccco3)on2)cnn1C(C)c1c(F)cccc1Cl (stereo unspecified)		100%	0%	0%	75%	
O=C(Nc1cnn(C2CCCc3ccccc32)c1)c1cc(-c2ccco2)on1 (stereo unspecified)	100%	125%				
O=C(Nc1cnn(C2CCc3cc(C(F)(F)F)ccc32)c1)c1cc(-c2cnccn2)on1 (stereo unspecified)					75%	75%
O=C(Nc1cnn(Cc2ccc(C(F)(F)F)cc2)c1)c1cc(-c2ccco2)on1	100%					75%
O=C(Nc1cnn(Cc2ccc(C(F)(F)F)cc2C(F)(F)F)c1)c1cc(-c2ccco2)on1					< 50%	< 50%
O=C(Nc1cnn(Cc2ccccc2)c1)c1cc(-c2ccco2)on1	100%	125%				
CC(c1c(Cl)cccc1Cl)n1cc(NC(=O)c2cc(-c3ccco3)on2)cn1 (single isomer, unassigned)	125%	100%				
O=C(Nc1cnn(C2CCc3cc(Cl)ccc32)c1)c1cc(-c2ccco2)on1 (single isomer, unassigned; enantiomer A)					75%	< 50%
O=C(Nc1cnn(C2CCc3cc(Cl)ccc32)c1)c1cc(-c2ccco2)on1 (single isomer, unassigned; enantiomer B)					75%	75%
CC(c1c(F)cccc1Cl)n1cc(NC(=O)c2cc(-c3ccco3)on2)cn1 (stereo in doubt; 1-4)	> 150%	> 150%				
CC(c1ccc(F)cc1F)n1cc(NC(=O)c2cc(-c3ccco3)on2)cn1 (stereo in doubt; 1-5)	100%	> 150%				
CC(c1ccc(C(F)(F)F)cc1C(F)(F)F)n1cc(NC(=O)c2cc(-c3cnccn3)no2)cn1 (stereo in doubt; 1-11)					50%	< 50%
CC(c1c(F)cccc1Cl)n1cc(NC(=O)c2cc(-c3ccco3)on2)cn1 (stereo in doubt; 1-14)	> 150%	> 150%	0%	0%		
CC(c1c(F)cccc1Cl)n1cc(NC(=O)c2cc(-c3ccco3)on2)cn1 (stereo in doubt; 1-15)	100%	100%	0%	0%		
CC(c1ccc(F)cc1F)n1cc(NC(=O)c2cc(-c3ccco3)on2)cn1 (stereo in doubt; 1-16)	100%	125%	0%	0%		
CC(c1ccc(F)cc1F)n1cc(NC(=O)c2cc(-c3ccco3)on2)cn1 (stereo in doubt; 1-17)	100%	100%	0%	0%		
CC(c1ccc(C(F)(F)F)cc1C(F)(F)F)n1cc(NC(=O)c2cc(-c3cnccn3)no2)cn1 (stereo in doubt; 1-25)					75%	75%
CC(c1ccc(C(F)(F)F)cc1C(F)(F)F)n1cc(NC(=O)c2cc(-c3cnccn3)no2)cn1 (stereo in doubt; 1-26)					< 50%	< 50%

From ChEMBL document CHEMBL5052848, “Atf6 modulators and uses thereof” (2021)
